Read-outs that look alike come from different tables or passages of the source.
Legend:
[1] = tested on: CYP3A; conditions: for Inhibition ratio of urinary 1β-OH-DCA excretion: after/before inhibition by fluvoxamine + voriconazole; for Urinary 1β-OH-DCA excretion: geometric mean (95% CI)
[2] = tested on: CYP3A; experiment: Oral midazolam pharmacokinetics (CYP3A phenotyping) in healthy volunteers at baseline, after inhibition and after induction; format: in vivo, human; conditions: MDZ 1 mg oral; for Cmax: human, plasma, po
Method: Healthy volunteers were administered, as part of the Geneva cocktail, MDZ 1 mg for CYP3A phenotyping at baseline (control session). During the inhibition session, participants received MDZ 1 mg after fluvoxamine intake (50 mg, two doses 12 h and 2 h before MDZ administration) and voriconazole intake (400 mg, one dose 2 h before MDZ administration). MDZ 1 mg was also received after a pretreatment with the inducer rifampicin (600 mg, one tablet every evening for seven days until the evening before administration of MDZ) (induction session). Urine samples were collected over 8 h after MDZ administration at each session. Venous blood samples (3 mL) were collected before (time 0) as well as 0.5, 1, 2, 3, 4, 6, and 8 h after probe drug administration. Breakfast and lunch were served approximately 1 h and 4 h, respectively, after the blood sampling. The trial is registered at http://www.clinicaltrials.gov (NCT01731067).
Analyses of MDZ and OH-MDZ in plasma were performed using a single reverse-phase high-performance liquid chromatography coupled with tandem mass spectrometry (LC-MS/MS) method as described in the study of Bosilkosvka et al..
The pharmacokinetic parameters of MDZ were obtained by standard noncompartmental methods using WinNonlin version 6.2.1 (Pharsight, Mountain View, CA, USA).
Inhibition ratios were calculated as follows:(1) Inhibition ratio = Metricafter inhibition/Metricbefore inhibition.
Similarly, induction ratios were calculated as follows:(3) Induction ratio = Metricafter induction/Metricbefore induction.

[3] = tested on: CYP3A; parameters: method as in PMID 19701237; conditions: after clarithromycin 250 mg twice daily for five days vs baseline; p = 0.04; cited from earlier work
[4] = induction session (rifampicin 600 mg, 7 days)
[5] = inhibition session (fluvoxamine + voriconazole)

Compound: C[C@H](CCC(=O)O)[C@H]1CC[C@H]2[C@@H]3CC[C@@H]4C[C@H](O)C[C@@H](O)[C@]4(C)[C@H]3C[C@H](O)[C@]12C [1β-OH-DCA, 1β-hydroxy-deoxycholic acid]
- Inhibition ratio of urinary 1β-OH-DCA excretion [1]: 0.62
- Inhibition ratio of urinary 1β-OH-DCA excretion ([1]; listed as 1β-OH -DCA): 0.62 (0.26–1.5)
- Urinary 1β-OH-DCA excretion ([1]; baseline): 15.5 (5.8–41.3) µg/8 h
- Urinary 1β-OH-DCA excretion [1, 4]: 61.8 (30.9–123.3) µg/8 h
- Urinary 1β-OH-DCA excretion [1, 5]: 9.6 (4.1–22.5) µg/8 h

Compound: Cc1ncc2n1-c1ccc(Cl)cc1C(c1ccccc1F)=NC2 [MDZ, midazolam]
- Oral MDZ CL ([2]; baseline, geometric mean (95% CI)): 143.0 (107.1–191.0) L/h
- Oral MDZ CL [2, 4]: 3296 (2351–4622) L/h
- Oral MDZ CL [2, 5]: 24.0 (19.7–29.3) L/h
- Cmax ([2]; 1 mg, baseline): 3.1 ng/mL
- Cmax [2, 4]: 0.15 ng/mL
- Cmax [2, 5]: 11.7 ng/mL

Compound: C[C@]12CCC(=O)C=C1CC[C@@H]1[C@@H]2[C@@H](O)C[C@@]2(C)[C@H]1CC[C@]2(O)C(=O)CO [cortisol]
- Increase in area under the concentration-time curve of plasma endogenous cortisol [3]: 19%

— paper PMC7923269 (Journal of Personalized Medicine, 2021)
